Here are results for three compounds from paper PMC10824666 (Nature Cancer, 2023).

Like-named read-outs stand apart in the source and are kept apart here.

Common to all, as to assay: biochemical
Common to all, as to parameters: Eurofins DiscoverX kinase panel, competitive binding assay at 1 uM, percent of DMSO control
What all share (conditions): competitive binding, percent of DMSO control

For one assay, the target named is T1, PI3K delta (Homo sapiens, UniProt O00329).
T1 construct: gene PIK3CD
T1 sequence (O00329 1-1044): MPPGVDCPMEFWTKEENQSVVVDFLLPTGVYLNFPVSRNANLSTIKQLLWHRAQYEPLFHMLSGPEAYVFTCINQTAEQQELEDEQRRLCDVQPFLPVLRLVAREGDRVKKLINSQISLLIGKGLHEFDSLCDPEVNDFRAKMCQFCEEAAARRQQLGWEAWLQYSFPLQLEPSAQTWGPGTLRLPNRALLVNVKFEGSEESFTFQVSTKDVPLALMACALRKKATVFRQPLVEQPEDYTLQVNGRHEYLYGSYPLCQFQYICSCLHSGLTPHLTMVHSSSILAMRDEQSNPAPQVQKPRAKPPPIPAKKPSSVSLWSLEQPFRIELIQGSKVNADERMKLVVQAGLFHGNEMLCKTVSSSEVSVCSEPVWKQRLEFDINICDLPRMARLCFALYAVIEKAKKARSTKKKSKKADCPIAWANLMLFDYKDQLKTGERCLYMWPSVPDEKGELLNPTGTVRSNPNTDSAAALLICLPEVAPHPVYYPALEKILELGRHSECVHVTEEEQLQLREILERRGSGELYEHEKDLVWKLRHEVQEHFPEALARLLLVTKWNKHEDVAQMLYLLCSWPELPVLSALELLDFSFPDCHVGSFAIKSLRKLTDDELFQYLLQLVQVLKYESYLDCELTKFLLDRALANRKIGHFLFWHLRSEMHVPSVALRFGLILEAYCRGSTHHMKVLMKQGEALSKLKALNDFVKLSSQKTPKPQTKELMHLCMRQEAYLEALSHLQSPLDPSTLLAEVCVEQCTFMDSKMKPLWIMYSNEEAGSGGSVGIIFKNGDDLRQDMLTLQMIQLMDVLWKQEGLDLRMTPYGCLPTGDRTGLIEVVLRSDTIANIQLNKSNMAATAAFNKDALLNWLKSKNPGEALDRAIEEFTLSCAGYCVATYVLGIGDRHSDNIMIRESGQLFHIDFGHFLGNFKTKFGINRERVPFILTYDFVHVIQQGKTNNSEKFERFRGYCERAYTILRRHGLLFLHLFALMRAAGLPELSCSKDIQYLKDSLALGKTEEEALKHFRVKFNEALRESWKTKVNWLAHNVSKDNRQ
The protocol:
(§1) Extended Data Fig. 3 In vitro characterization of potent and selective KIF18A inhibitors. a, KIF18A compounds (1 µM) were assessed across a panel of kinases (n = 96) by a competitive binding assay. Graph presented as percentage of control (POC); dashed line indicates POC value of 30 (n = 1 experiment). b, Tubulin polymerization analysis. Profile of KIF18A compounds (10 µM) relative to DMSO, paclitaxel (5 µM, tubulin stabilizer), or nocodazole (5 µM, tubulin destabilizer). Graphs presented as tubulin fluorescence signal at 440 nm expressed as arbitrary units (a.u.) versus time (min) with area-under-the-curve (AUC) values (n = 1 or 3 independent experiments). c, Mitotic spindle image analysis. […] Representative images were captured with x40 objective (scale bar = 10 µm) (n = 1 experiment). d-f, KIF18A compound effects on HeLa cells. d, Cells were treated for 96 h with DMSO or KIF18A compounds at the indicated concentrations. KIF18A compound concentration-response profiles presented as count relative to the percentage of DMSO control (POC) with count EC50 values (n = 2 independent experiments in duplicate). e, KIF18A protein localization in cells after treatment for 6 hours with DMSO or AM-1882 (0.05 µM). Cells stained to detect DNA, KIF18A, and centrin-3. Representative images of mitotic cells (n = 3 per group) were captured with x60 objective (scale bar = 5 µm) and graphs of line scan measurements were obtained for DNA, KIF18A, and centrin-3 channels expressed as fluorescence intensity (a.u.) versus distance (µm) (n = 1 experiment). f, Mitotic cell fate imaging analysis. HeLa Kyoto cells co-expressing α-tubulin-EGFP and H2B-mCherry proteins released from a G1S block in media containing DMSO or AM-1882 (0.2 µM). Analysis was performed on cells entering the first mitosis (n = 40 cells per group). Graph presented as time in mitosis (h) versus mitotic cell fate, either complete cell division (CCD) or death in mitosis (DiM). Classified cells exiting mitosis by the number of daughter cells and cell death in […] We screened a small-molecule library of diverse compounds for selective inhibitors of KIF18A MT-ATPase motor activity. Two compound hits were discovered that phenocopied the effects of KIF18A KD in cells; these hits are structurally distinct from the KIF18A inhibitor BTB-1 (refs. [27],[28]). […] However, the potency of the KIF18A inhibitors was unaffected by varying ATP and MT concentrations (Extended Data Fig. 2d). This supports our proposed model in which KIF18A inhibitors occupy an allosteric pocket formed by motor helices α4 and α6 close to the motor MT-binding surface. To screen for potential off-target interactions with essential mitotic kinases, three of the KIF18A compounds were profiled against a large panel of kinases. […] We next investigated whether our KIF18A inhibitors affected tubulin polymerization in vitro in the absence of the KIF18A motor. All four KIF18A compounds had tubulin-polymerization profiles similar to that of the DMSO control and distinct from those of the paclitaxel (MT stabilizer) and nocodazole (MT destabilizer) co

In a further assay the target is ERN1 (Homo sapiens, UniProt O75460). The protocol: as §1
ERN1, sequence (O75460 whole entry): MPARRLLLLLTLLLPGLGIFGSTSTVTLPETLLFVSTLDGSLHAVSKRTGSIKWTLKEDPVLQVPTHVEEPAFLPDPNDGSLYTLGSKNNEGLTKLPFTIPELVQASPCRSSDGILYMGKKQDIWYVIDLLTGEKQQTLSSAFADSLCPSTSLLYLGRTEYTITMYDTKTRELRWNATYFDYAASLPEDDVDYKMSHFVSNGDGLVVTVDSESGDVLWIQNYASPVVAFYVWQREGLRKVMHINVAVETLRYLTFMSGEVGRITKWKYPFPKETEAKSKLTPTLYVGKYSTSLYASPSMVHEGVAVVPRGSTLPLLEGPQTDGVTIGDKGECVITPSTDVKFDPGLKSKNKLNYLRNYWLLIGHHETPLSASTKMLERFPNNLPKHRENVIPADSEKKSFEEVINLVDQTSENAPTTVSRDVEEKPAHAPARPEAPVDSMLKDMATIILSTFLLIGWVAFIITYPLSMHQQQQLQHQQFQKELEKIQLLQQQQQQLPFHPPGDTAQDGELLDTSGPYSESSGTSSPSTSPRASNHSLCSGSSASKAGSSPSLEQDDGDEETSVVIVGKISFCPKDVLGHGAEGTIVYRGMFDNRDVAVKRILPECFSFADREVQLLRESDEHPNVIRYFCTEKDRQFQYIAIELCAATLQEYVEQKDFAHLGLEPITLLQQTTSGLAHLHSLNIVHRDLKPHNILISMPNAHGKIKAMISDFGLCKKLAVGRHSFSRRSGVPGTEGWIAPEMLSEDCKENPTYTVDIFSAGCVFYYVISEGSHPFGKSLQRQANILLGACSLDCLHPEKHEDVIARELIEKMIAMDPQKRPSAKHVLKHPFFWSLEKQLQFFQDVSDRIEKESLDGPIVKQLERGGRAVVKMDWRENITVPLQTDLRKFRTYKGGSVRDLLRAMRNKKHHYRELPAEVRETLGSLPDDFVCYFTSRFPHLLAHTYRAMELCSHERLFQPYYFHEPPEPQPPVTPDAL
A further assay addresses DDR1 (Homo sapiens, UniProt Q08345). The protocol:
as §1

A further assay deals with Fyn (Homo sapiens, UniProt P06241). The protocol: as §1
Fyn, sequence (P06241 whole entry): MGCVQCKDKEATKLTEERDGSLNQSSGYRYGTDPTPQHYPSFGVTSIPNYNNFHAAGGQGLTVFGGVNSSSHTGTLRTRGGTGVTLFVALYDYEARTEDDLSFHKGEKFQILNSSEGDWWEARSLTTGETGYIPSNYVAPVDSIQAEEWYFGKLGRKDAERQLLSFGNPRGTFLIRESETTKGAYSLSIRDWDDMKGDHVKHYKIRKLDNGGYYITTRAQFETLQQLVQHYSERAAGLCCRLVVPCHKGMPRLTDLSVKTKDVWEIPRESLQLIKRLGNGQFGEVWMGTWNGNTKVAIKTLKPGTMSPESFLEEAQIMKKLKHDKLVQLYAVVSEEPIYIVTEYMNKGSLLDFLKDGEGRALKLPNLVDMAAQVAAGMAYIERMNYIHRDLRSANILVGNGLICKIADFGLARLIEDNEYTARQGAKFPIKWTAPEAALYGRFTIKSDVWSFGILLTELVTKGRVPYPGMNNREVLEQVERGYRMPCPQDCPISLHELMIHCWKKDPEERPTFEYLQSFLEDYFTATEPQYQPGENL
[1] abbreviates: read-out: Kinome Profiling performed by Eurofins DiscoverX / AM-0277, 1.0 µM / POC.
The mark [2] stands for this setting: read-out: Kinome Profiling performed by Eurofins DiscoverX / AM-1882, 1.0 µM / POC.
[3] abbreviates: read-out: Kinome Profiling performed by Eurofins DiscoverX / AM-5308, 1.0 µM / POC.

DDR1, sequence (Q08345 whole entry): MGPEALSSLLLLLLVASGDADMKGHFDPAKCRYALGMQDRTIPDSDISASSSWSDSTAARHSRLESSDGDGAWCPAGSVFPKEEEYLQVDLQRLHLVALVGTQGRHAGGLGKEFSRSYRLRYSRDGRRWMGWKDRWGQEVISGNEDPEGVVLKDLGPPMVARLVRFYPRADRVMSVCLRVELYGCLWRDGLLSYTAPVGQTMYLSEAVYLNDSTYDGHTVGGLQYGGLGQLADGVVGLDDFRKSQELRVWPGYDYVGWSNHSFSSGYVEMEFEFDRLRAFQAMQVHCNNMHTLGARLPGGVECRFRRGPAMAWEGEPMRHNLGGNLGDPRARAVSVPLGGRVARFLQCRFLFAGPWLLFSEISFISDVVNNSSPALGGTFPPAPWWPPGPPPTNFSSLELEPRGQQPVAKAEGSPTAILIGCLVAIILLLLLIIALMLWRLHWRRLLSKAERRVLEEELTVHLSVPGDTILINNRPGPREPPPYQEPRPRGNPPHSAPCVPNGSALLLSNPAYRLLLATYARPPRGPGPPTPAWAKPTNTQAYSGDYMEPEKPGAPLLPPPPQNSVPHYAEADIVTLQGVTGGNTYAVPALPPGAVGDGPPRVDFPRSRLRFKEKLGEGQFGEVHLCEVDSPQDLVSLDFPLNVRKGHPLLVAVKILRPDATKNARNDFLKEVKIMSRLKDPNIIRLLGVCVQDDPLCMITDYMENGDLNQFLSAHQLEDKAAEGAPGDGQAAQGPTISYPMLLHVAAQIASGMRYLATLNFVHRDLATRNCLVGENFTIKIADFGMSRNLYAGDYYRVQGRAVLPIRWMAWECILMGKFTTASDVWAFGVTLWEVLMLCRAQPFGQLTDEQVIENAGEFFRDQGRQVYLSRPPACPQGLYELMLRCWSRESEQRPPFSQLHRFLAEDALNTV

For `CC(C)(CO)Nc1ccc(C(=O)Nc2cccc(S(=O)(=O)C3CCCC3)c2)c(N2CCC3(CC2)CC3)n1` [AM-0277], the remaining activity at 1 µM at PI3K delta (setting [1]) turned out to be 100%; at ERN1 (setting [1]), 100%; at DDR1 (setting [1]), 95%; on Fyn (setting [1]), 100%.

`CC(C)(C)NS(=O)(=O)c1cccc(NC(=O)c2ccc(S(=O)(=O)NC(C)(C)C)cc2N2CCC3(CC2)CC3)c1` [AM-1882]: the remaining activity at 1 µM is 96.5% on PI3K delta (setting [2]), 100% on ERN1 (setting [2]), 97% on DDR1 (setting [2]) and 85.5% on Fyn (setting [2]).

`C[C@@H]1CN(c2cccc(NC(=O)c3ccc(NS(=O)(=O)CCO)cc3N3CCC4(CC3)CC4)n2)CCO1` [AM-5308]: the remaining activity at 1 µM was found to be 68% at PI3K delta (setting [3]), 80% at ERN1 (setting [3]), 100% on DDR1 (setting [3]) and 92% on Fyn (setting [3]).
